In ChEMBL document CHEMBL1124742 (J Med Chem, 1990):

What was measured:
[1] = system: CHO-AA8; assay: In vitro cytotoxicity against transformed chinese hamster fibroblast line AA8; format: functional, cell-based; conditions: Cricetulus griseus
[2] = system: UV4; assay: In vitro cytotoxicity against transformed chinese hamster fibroblast line UV4.; format: functional, cell-based; conditions: Cricetulus griseus
[3] = species: Cricetulus griseus; assay: Hypersensitivity factor(HF) was determined from the ratio of IC50(AA8) / IC50(UV4); format: functional
[4] = Evaluated for the mustard reactivity by determining rate constant for hydrolysis of mustard in aqueous acetone (K H); format: ADME; conditions: buffer
[5] = Evaluated for the mustard reactivity by determining rate constant for alkylation of 4-(4-nitrobenzyl)pyridine using NBP alkylation assay; format: ADME
[6] = system: P388; assay: Optimal dose of drug administered as a single dose in 0.1 or 0.2 mL of 30% v/v ethanol/water on day one after ip inoculation of 10e6 P388 leukemia cells; format: functional, Mus musculus
[7] = system: P388; assay: In vitro cytotoxicity against P388 murine leukemia; format: functional, cell-based; conditions: Mus musculus
[8] = system: P388; assay: In vivo percentage increase in lifespan of drug treated tumor-bearing mice at a dose of 45 mg/kg; format: functional; conditions: Mus musculus
[9] = system: P388; assay: In vivo percentage increase in lifespan of drug treated tumor-bearing mice at a dose of 20 mg/kg; format: functional; conditions: Mus musculus
[10] = system: P388; assay: Tested for the in vitro cytotoxicity against P388 murine leukemia; format: cell-based; conditions: Mus musculus
[11] = system: P388; assay: In vivo percentage increase in lifespan of drug treated tumor-bearing mice at a dose of 225 mg/kg; format: functional; conditions: Mus musculus
[12] = system: CHO-AA8; assay: (§1) Tested for the in vitro cytotoxicity against transformed chinese hamster fibroblast line AA8; format: cell-based; conditions: Cricetulus griseus
[13] = system: P388; assay: In vivo percentage increase in lifespan of drug treated tumor-bearing mice at a dose of 13.3 mg/kg; format: functional; conditions: Mus musculus
[14] = system: CHO-AA8; assay: as §1; format: functional, cell-based; conditions: Cricetulus griseus
[15] = system: UV4; assay: Tested for the in vitro cytotoxicity against transformed chinese hamster fibroblast line UV4.; format: functional, cell-based; conditions: Cricetulus griseus

CCN(CC)CCCC(C)Nc1c2ccc(Cl)cc2nc2ccc(OC)cc12 (stereo not drawn) [QUINACRINE]
IC50 [1]: 1700 nM | IC50 [2]: 140 nM | Ratio [3]: 11.5

O=C(CCCCCNc1c2ccccc2nc2ccccc12)c1ccc(N(CCCl)CCCl)cc1
K H [4]: 1100 s⁻¹ | IC50 [1]: 3510 nM | K NBP [5]: 1800 s⁻¹ | IC50 [2]: 593 nM | OD [6]: 65 mg/kg | Ratio [3]: 5.9 | IC50 [7]: 330 nM

O=C(CCCCNc1c2ccccc2nc2ccccc12)Nc1ccc(N(CCCl)CCCl)cc1
K H [4]: 2900 s⁻¹ | IC50 [1]: 900 nM | K NBP [5]: 2500 s⁻¹ | IC50 [2]: 80 nM | ILS at 45 mg/kg [8]: 58% | OD [6]: 45 mg/kg | Ratio [3]: 11.3 | IC50 [7]: 3200 nM

ClCCN(CCCl)c1ccc(OCCCCCNc2c3ccccc3nc3ccccc23)cc1
ILS at 20 mg/kg [9]: 28% | K H [4]: 100000 s⁻¹ | IC50 [1]: 210 nM | K NBP [5]: 115000 s⁻¹ | IC50 [2]: 5 nM | OD [6]: 20 mg/kg | Ratio [3]: 46 | IC50 [7]: 40 nM

O=C(O)CCCc1ccc(N(CCCl)CCCl)cc1 [CHLORAMBUCIL]
IC50 [10]: 6750 nM | ILS at 225 mg/kg [11]: 37% | IC50 [2]: 600 nM | OD [6]: 225 mg/kg | Ratio [3]: 58 | IC50 [12]: 26000 nM

O=C(NCCCCNc1c2ccccc2nc2ccccc12)c1ccc(N(CCCl)CCCl)cc1
K H [4]: 25700 s⁻¹ | IC50 [1]: 3700 nM | K NBP [5]: 171000 s⁻¹ | IC50 [2]: 673 nM | OD [6]: 20 mg/kg | Ratio [3]: 5.5 | IC50 [7]: 510 nM

ClCCN(CCCl)c1ccc(CCCCCCNc2c3ccccc3nc3ccccc23)cc1
ILS at 13.3 mg/kg [13]: 22% | K H [4]: 33900 s⁻¹ | IC50 [1]: 530 nM | K NBP [5]: 157000 s⁻¹ | IC50 [2]: 15 nM | OD [6]: 13.3 mg/kg | Ratio [3]: 36 | IC50 [7]: 130 nM

O=S(=O)(CCCCCNc1c2ccccc2nc2ccccc12)c1ccc(N(CCCl)CCCl)cc1
K H [4]: 2800 s⁻¹ | K NBP [5]: 500 s⁻¹ | IC50 [14]: 570 nM | ILS at 45 mg/kg [8]: 33% | OD [6]: 45 mg/kg | IC50 [15]: 570 nM | Ratio [3]: 1 | IC50 [7]: 640 nM

ClCCN(CCCl)c1ccc(SCCCCCNc2c3ccccc3nc3ccccc23)cc1
K H [4]: 5900 s⁻¹ | IC50 [1]: 710 nM | K NBP [5]: 16900 s⁻¹ | IC50 [2]: 37 nM | ILS at 45 mg/kg [8]: 23% | OD [6]: 45 mg/kg | Ratio [3]: 19 | IC50 [7]: 360 nM
